Results on three substances are retold here after patent US8648211B2, “Surface-modifying silicone elastomers” (priority 2009, dated 2014).

Holding throughout (format): physicochemical
Series [1] is described as follows: Wetting of polystyrene by aqueous surfactant solutions (drop shape analyzer). Particulars: for surface area of drop versus buffer control on polystyrene: 0.1 wt % (0.2 wt %, 0.5 wt %) in phosphate buffer pH=7. Here is the method:
(§1) ^1H NMR and ^13C NMR spectra were obtained on Bruker AC-200 (200-MHz) spectrometer. The molecular weight and mass spectra were determined on a Micromass Global Q-TOF Ultima (MALDI/CapLC-ESI Quadrupole Time of Flight) Mass Spectrometer. ATR-FTIR spectra were obtained on Bio-Rad FTS-40 (Fourier transform IR) spectrometer with an ATR accessory, on which a 45° rectangle ZnSe crystal was used. Surface water contact angle and surface tension were recorded using a Krüss V1.50 drop shape analyzer.
(§2) The ability of solutions of APS and related compounds to wet substrates was established using a drop shape analyzer. The contact angles and total spreading were established immediately after placing an aqueous drop volume ˜0.02 ml onto the surface of polystyrene (a new Petri dish) or a cleaned glass slide.
(§3) The ability of APS to disperse an aqueous phosphate buffer solution (pH=7) was determined on both hydrophobic (polystyrene) and hydrophilic (glass) surfaces. […] By contrast, when 1.5 wt % APS was included in the buffer, the maximum wetting diameter area on polystyrene was close to 6.16 cm^2, close to 200 times the area of the original buffer solution. Thus, APS has characteristics of typical superwetters.

A short description of series [2]: Wetting of glass by aqueous surfactant solutions (drop shape analyzer). The note with it: 0.1 wt % (0.2 wt %, 0.5 wt %) in phosphate buffer pH=7. Here is the method:
as §1, §2, §3

Series [3] is described as follows: Water wetting (contact angle, spreading) on surface-modified PDMS. Here is the method:
as §1
(§4) The ability of water to wet out a variety of surface modified silicones was also established using the drop shape analyzer. […] Prior to each test, the coupons were thoroughly washed by DI water (FIG. 8).
The magnitude of spreading of APS in water was examined, and water on APS tethered to silicone, but not yet considered is the rate of spreading: rapid rates of spreading are also emblematic of superwetters. The water spreading rate on APS-modified PDMS was calculated according to a literature method^26 where: spreading rate=dD/dt (1) and, spreading area=dΔS/dt, (2) wherein D is the diameter of water droplet, S is the surface area covered by water and t is the spreading time. […] That is, replacing a terminal alcohol, acetate, etc., on the PEG block with an allyl group leads only to subtle changes in wetting properties. The situation is quite different when the superwetter is tethered.

Series [4] can be described thus: Stability of aqueous surfactant solutions (decomposition in water). From the text:
The durability and environmental stability of modified surfaces are factors to consider for their use in real applications. While silicones are normally very stable to degradation, provided that the conditions remain near neutrality, branched trisiloxanes are notoriously unstable to hydrolysis.^27 Superwetters are usually added to the agents to be dispersed and then used immediately in pH 7 buffers. […] However, it was possible that tethering the superwetter to a surface would change the hydrolytic susceptibility.

Series [5] can be described thus: Hydrolytic stability of APS-modified PDMS soaked in pH 4 and pH 10 solutions. Here is the method: as §4
The hydrolytic stability of APS-modified PDMS elastomers was tested by soaking for extended periods of time in aqueous pH=4 and pH=10 solutions. […] However, while spreading is impeded after the surface is exposed to such conditions, the water contact angle can still decrease to 20° over 2-3 minutes. The tethered APS is thus more resistant to hydrolytic degradation than APS in solution. Further degradation while soaking the tethered APS in an aqueous solution occurred in the second week, after which no superspreading effect was observed: contact angles decreased only to about 60° over 1-2 minutes.

Series [6] can be described thus: Shelf-life of APS-modified PDMS stored in air, tested monthly over 5 months.
Text: as §4
The shelf-life of the tethered APS was also established by testing spreading behavior monthly over a period of 5 months: samples of APS-modified surfaces were stored without any special protection on the laboratory bench. Subtle changes were observed over time. While the final contact angle (approaching zero) of water droplets was still achieved after 5 months, spreading rates changed appreciably. Rather than two distinct spreading rates, the droplet would spread to a specific radius, stop for several (typically up to 10) seconds and then spread to a new larger radius. This start-stop-start-stop process was repeated up to about 8 times at which point the approximately 0° contact angle was achieved.

The mark [7] stands for this setting: 0.02 ml water on APS-modified silicone elastomer.
[8] abbreviates: PDMS 1 wt % DC1107 grafted with 14.7 wt % APS, 0.02 ml water.

bis-heptamethyltrisiloxanyl-PEG [SiPS]: the “surface area of drop versus buffer control on polystyrene” value in series [1] was “only marginally larger surface areas”. The “surface area of drop versus buffer control on glass” value in series [2] is reported as “only marginally larger surface areas”.

Diallyl-Terminated PEO [DAP]: the “surface area of drop versus buffer control on polystyrene” value in series [1] was “only marginally larger surface areas”. For the same substance, the “surface area of drop versus buffer control on glass” value in series [2] is “only marginally larger surface areas”. For the same substance, in series [3] (in aqueous solution and grafted to PDMS), the “superwetting properties of compound or compound-modified surfaces” value is listed as “do not have superwetting properties”. For the same substance, the “lowest contact angle of grafted PDMS” value in series [3] (pure DAP grafted to PDMS at 10, 20, 50% in THF) is given as 80 °.

For the substance Allyl PEO Siloxane [APS], the “area of one drop after spreading” value in series [1] (1 wt % aqueous solution, from 0.03 cm^2, in 5 seconds, surface not stated, data not shown) is 4.91 cm^2. In addition, in series [1] (1.5 wt % in aqueous phosphate buffer pH=7, 5 μl buffer control 0.031 cm^2), the “maximum wetting diameter area on polystyrene” value was about 6.16 cm^2. For the same substance, the “wetting area relative to the area of the original buffer solution” value in series [1] (1.5 wt % in phosphate buffer pH=7, polystyrene) is reported as about 200 times. Besides, the “spreading of aqueous solutions compared with commercial superwetter L77” value in series [1] (degree and velocity of spreading, surface not stated) was “approximately the same degree and at a similar velocity to the commercial superwetter L77”. The “stability of aqueous solution” value in series [4] was “decomposed in water over a few days to a week”. Besides, the “spreading rate of water droplet, first 3 seconds” value in series [3] (0.02 ml water on APS-modified PDMS (1 wt % DC1107, 14.7 wt % APS)) is recorded as about 1 mm s^−1. Besides, in series [3] (setting [7]), the “final area covered by water relative to original droplet size” value is “about 15 times” and the “water contact angle within about 1 minute” value is reported as “below 10 °”. Also, in series [3] (APS-modified PDMS), the “contact angle at the edge of the spread droplet when the drop ceases to migrate” value is recorded as about 0 °. In series [3] (setting [8]), the “increase of water spreading area during first 3 seconds” value stood at 8 times and the “spreading rate of water droplet, subsequent 30 seconds” value was “approximately 0.1 mm s^−1”. Also, in series [3] (distilled water, in some cases, depends on surface coverage), the “water contact angle on APS-grafted silicone surfaces within one minute” value is “nearly zero”. Besides, the “Contact Angle (°)” value in series [3] (water droplets 0.02 ml on modified PDMS prepared with 1% DC1107) is recorded as 0 °. For the same substance, the “Wetting Diameter (mm)” value in series [3] (water droplets 0.02 ml, initial radius ~1.0 mm, final diameter after 1 min, modified PDMS, 1% DC1107) is given as 8 mm. Also, the “water contact angle after soaking, second week” value in series [5] (APS-modified PDMS soaked in aqueous solution, reached over 1-2 minutes, no superspreading) is “about 60 °”. In addition, the “water contact angle after soaking, first week” value in series [5] (APS-modified PDMS soaked in pH=4 and pH=10 solutions, reached over 2-3 minutes) worked out at 20 °. For the same substance, the “final water contact angle after 5 months” value in series [6] (APS-modified surface stored on the laboratory bench) was “approximately 0 °”. In addition, in series [6] (APS-modified surface, storage in air), the “time surface remained superhydrophilic” value is “at least 5 months”.
